Results taken from ChEMBL document CHEMBL1201862, “PubChem BioAssay data set” (2004).
The source made the active and inactive calls.

Experiments:
BJ [1] = assay: cells; assay type: functional, cell-based; conditions: Homo sapiens
Vero [2] = assay: host cell cytotoxicity of antiviral hits, dose response, cytotoxicity control for West Nile virus antiviral project, secondary assay (AID 1650); assay type: functional; conditions: Chlorocebus sabaeus
BJ [3] = assay: cytotoxicity toward BJ-TERT fibroblasts, dose response, cell-based, RAS-independent, luminescence (AID 1933); assay type: functional; conditions: Homo sapiens
[4] = cytotoxicity toward DRD oncogenic fibroblasts, dose response, cell-based, non-viral oncogenic, luminescence (AID 1934); assay type: functional; conditions: Homo sapiens
Vero [5] = assay: cells; assay type: functional, cell-based; conditions: Chlorocebus sabaeus
Vero [6] = assay: cells; assay type: functional; conditions: Chlorocebus sabaeus
BJ [7] = assay: cytotoxicity toward BJ-TERT-LT-ST fibroblasts, dose response, cell-based, RAS-independent, luminescence (AID 1935); assay type: functional; conditions: Homo sapiens;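 note: BJ fibroblasts immortalized with TERT plus LT and ST oncogenes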
[8] = C. albicans growth with fluconazole, confirmation, fluorescence, retest (AID 2467); assay type: functional, cell-based
[9] = NIH-3T3 fibroblast cytotoxicity, dose response, cytotoxicity control, cell-based, fluorescence, Alamar Blue, secondary assay (AID 2327); assay type: functional;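 note: NIH-3T3 mouse fibroblasts cultured with fluconazole at 8 µg/mL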
Albumin = Albumin (Bos taurus, UniProt P02769); assay: Counterscreen for inhibitors of T-cell receptor (TCR)-CD3 interaction: Fluorescence-based biochemical high throughput dose response assay to identify inhibitors of T-cell receptor (TCR)-CD3 interaction using a TAMRA-labeled BSA probe.; assay type: functional
Albumin, sequence (P02769 whole entry): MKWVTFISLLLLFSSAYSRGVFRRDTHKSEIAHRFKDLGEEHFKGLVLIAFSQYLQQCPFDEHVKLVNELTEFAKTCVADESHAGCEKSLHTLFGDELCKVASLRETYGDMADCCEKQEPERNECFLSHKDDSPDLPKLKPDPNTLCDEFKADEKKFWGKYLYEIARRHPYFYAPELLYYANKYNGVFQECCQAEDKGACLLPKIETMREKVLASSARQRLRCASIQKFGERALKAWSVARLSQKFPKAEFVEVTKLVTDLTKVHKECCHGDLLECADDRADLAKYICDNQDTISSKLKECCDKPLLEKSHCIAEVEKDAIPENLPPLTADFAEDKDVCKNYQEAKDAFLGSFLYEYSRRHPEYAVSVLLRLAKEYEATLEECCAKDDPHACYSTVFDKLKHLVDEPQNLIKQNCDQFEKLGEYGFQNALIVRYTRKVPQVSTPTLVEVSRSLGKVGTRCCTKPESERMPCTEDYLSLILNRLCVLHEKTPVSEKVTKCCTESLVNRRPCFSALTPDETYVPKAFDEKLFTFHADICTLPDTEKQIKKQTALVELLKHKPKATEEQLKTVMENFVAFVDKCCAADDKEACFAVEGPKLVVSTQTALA

HeLa = assay: HeLa cell cytotoxicity, dose response, cytotoxicity control for MITF activator project, CellTiter-Glo luminescence, cherry-pick samples (AID 540259); assay type: functional, cell-based; conditions: Homo sapiens
[10] = Luminescence Cell-Based Dose Retest to Confirm Inhibitors of Cancer Stem Cells. [Related pubchem assays (depositor defined):AID2717, AID2721]; assay type: functional; conditions: Homo sapiens
[11] = molecular target: Heat shock protein HSP 90-alpha (Homo sapiens, UniProt P07900); assay type: functional, organism-based
[12] = microbe, parasite or virus in culture; assay type: functional; conditions: Mycobacterium tuberculosis
[13] = molecular target: T1, Ubiquitin-conjugating enzyme E2 N (Homo sapiens, UniProt P61088); assay type: functional;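 note: Dose-response confirmation in a TR-FRET assay detecting UBC13-driven polyubiquitin chain formation, inhibition measured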
T1 sequence (P61088 whole entry): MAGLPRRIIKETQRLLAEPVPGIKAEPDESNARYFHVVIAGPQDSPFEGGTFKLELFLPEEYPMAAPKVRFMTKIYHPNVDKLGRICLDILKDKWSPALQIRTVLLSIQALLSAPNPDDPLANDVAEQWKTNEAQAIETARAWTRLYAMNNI

Streptokinase A = molecular target: T2, Streptokinase A (Streptococcus pyogenes serotype M1, UniProt P10520); assay: S. pyogenes streptokinase expression inhibitors, potency, dose response, plasminogen activation absorbance, OD405 (AID 1914); assay type: functional, Streptococcus pyogenes M1 GAS;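 note: secreted streptokinase activity via plasminogen activation per viability signal from cell pellet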
T2 sequence (P10520 whole entry): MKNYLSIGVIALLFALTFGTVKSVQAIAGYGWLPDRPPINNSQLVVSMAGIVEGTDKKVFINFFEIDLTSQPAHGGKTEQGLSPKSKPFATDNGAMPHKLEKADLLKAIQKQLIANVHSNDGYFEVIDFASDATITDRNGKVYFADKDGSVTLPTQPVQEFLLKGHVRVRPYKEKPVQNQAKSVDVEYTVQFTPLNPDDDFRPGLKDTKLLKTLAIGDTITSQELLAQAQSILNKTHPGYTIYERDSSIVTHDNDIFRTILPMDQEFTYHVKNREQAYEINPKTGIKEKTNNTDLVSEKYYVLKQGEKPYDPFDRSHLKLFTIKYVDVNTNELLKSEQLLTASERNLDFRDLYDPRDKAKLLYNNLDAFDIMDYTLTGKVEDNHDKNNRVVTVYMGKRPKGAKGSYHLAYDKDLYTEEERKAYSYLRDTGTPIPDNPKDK

[14] = system: Streptococcus sp. 'group A'; assay: growth inhibition of control SK(-) GAS strain, dose response, counter-screen for streptokinase expression inhibitor project, luminescence, kanamycin, BacTiterGlo, confirmation (AID 1900); assay type: functional, organism-based
Streptococcus = assay: Group A Streptococcus viability loss, dose response, counter-screen for streptokinase expression inhibitor project, luminescence, BacTiterGlo (AID 1915); assay type: functional, organism-based;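 note: potency for reduction of bacterial viability or growth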
[15] = cytotoxicity toward NIH3T3 fibroblasts, dose response, counter-screen, cell-based, ATP luminescence, mouse fibroblasts (AID 2010); assay type: functional;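 note: cells exposed to compound for about 90 hours before reading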
cells [16] = assay type: functional, cell-based
INS1 = assay: beta cell apoptosis inhibitors, cytokine rescue, dose response, luminescence, retest (AID 449756); assay type: functional, cell-based; conditions: Rattus norvegicus;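 note: cell death triggered by IL-1 beta plus TNF-alpha plus IFN-gamma mixture; protective hits raise ATP signal compared with cytokine alone wells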
cells [17] = assay type: functional, cell-based; remark: listed apart in the source
[18] = inhibitors of intracellular T. cruzi replication, confirmation, NIH3T3 host cells, beta-gal luminescence (AID 2044); assay type: functional, cell-based;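 note: intracellular parasites grown in NIH/3T3 mouse fibroblasts as host cells; luminescent beta-galactosidase reporter signal from transgenic T. cruzi replicating inside host cells; inhibitors lower the luminescence signal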
[19] = molecular target: T3, Carboxy-terminal domain RNA polymerase II polypeptide A small phosphatase 1 (Homo sapiens, UniProt Q9GZU7); assay: inhibitors of CTDSP1, concentration-response testing, biochemical assay, absorbance-based, actives from ultra-high-throughput screening (AID 540297); assay type: functional
T3 sequence (Q9GZU7 whole entry): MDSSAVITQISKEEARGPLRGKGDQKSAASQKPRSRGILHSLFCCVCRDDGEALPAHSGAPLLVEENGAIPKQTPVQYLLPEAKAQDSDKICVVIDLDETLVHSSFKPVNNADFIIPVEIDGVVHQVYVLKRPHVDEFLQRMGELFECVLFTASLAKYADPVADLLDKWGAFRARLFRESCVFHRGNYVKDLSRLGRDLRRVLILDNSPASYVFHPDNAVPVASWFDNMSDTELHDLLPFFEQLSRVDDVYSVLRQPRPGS

[20] = molecular target: T4, Tyrosine-protein phosphatase non-receptor type 5 (Homo sapiens, UniProt P54829); assay: STEP phosphatase inhibitors, confirmation, biochemical, fluorescence intensity, uHTS hits (AID 602372); assay type: functional; conditions: read-out: IC50_Mean
T4 sequence (P54829 whole entry): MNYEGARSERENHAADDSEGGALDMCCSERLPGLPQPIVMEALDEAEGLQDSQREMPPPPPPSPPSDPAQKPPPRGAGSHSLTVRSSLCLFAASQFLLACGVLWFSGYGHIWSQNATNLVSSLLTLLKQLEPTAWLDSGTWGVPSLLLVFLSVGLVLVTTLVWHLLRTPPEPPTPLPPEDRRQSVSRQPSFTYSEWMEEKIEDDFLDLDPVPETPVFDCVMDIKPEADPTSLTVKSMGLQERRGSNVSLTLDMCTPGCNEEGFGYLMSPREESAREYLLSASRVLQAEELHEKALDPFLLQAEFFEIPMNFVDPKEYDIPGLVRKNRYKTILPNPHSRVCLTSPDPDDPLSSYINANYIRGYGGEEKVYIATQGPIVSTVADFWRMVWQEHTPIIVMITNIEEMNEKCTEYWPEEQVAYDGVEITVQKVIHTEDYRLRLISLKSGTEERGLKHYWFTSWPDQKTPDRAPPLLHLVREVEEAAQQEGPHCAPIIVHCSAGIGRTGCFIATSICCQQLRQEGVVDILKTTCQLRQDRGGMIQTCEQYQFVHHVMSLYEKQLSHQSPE

[21] = molecular target: Dual specificity protein phosphatase 3 (Homo sapiens, UniProt P51452); assay: VHR phosphatase inhibition, dose response, selectivity assay for STEP inhibitor project, biochemical (AID 602374); assay type: functional; conditions: read-out: IC50_Mean
Dual specificity protein phosphatase 3, sequence (P51452 whole entry): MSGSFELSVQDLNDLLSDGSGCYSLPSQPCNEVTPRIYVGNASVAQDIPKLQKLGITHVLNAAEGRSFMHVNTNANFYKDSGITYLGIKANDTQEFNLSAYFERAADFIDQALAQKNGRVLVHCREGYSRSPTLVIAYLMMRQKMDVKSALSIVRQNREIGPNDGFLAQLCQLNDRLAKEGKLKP

[22] = molecular target: T5, Tyrosine-protein phosphatase non-receptor type 11 (Homo sapiens, UniProt Q06124); assay: SHP2 phosphatase inhibition, dose response, selectivity assay for STEP inhibitor project, biochemical (AID 602367); assay type: functional; conditions: read-out: IC50_Mean
T5 sequence (Q06124 whole entry): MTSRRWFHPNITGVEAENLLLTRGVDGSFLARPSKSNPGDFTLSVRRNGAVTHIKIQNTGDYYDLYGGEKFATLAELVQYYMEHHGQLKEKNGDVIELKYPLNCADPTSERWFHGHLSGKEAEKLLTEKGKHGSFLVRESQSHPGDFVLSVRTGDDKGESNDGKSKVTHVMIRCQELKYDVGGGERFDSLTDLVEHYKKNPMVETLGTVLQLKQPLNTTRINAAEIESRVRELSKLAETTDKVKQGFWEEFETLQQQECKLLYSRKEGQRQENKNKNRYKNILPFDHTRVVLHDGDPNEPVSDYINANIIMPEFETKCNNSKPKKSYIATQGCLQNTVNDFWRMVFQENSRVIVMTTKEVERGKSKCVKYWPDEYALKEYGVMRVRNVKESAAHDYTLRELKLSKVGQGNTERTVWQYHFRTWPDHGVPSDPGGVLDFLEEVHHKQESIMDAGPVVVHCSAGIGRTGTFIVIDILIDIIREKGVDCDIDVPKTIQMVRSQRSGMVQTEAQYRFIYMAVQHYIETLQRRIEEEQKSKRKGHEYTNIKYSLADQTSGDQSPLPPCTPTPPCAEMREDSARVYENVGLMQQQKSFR

Genome polyprotein = Genome polyprotein (dengue virus type 2, UniProt P29990); assay: Dengue-2 NS5 methyltransferase inhibitors, primary screen, biochemical, confirmation dose response (AID 588689); assay type: functional
Genome polyprotein, sequence (P29990 2492-3391 limits assumed): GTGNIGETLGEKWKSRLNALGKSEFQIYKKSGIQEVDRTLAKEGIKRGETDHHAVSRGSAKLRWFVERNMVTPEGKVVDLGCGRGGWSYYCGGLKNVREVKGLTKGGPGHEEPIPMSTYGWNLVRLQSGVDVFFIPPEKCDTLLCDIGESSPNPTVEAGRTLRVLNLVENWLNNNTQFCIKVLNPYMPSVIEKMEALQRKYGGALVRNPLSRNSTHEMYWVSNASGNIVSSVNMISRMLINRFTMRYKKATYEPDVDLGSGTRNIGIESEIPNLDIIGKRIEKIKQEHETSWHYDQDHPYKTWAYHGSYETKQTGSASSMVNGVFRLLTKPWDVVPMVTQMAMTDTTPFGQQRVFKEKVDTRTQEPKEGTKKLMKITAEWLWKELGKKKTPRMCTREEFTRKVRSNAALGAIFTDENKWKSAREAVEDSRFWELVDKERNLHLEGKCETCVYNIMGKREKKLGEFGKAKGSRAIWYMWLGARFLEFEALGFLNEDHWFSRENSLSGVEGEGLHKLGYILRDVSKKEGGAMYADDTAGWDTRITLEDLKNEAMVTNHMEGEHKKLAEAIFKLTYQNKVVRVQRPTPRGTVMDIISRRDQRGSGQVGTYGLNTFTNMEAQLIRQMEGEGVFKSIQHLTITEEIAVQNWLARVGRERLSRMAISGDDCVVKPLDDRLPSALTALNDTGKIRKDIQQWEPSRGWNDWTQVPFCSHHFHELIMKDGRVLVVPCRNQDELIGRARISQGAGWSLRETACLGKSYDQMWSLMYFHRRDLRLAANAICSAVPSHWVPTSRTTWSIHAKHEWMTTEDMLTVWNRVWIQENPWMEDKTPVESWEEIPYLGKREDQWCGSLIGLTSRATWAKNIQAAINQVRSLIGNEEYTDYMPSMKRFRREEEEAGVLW

Nonstructural protein 1 = Nonstructural protein 1 (Influenza A virus, UniProt Q194T2); assay type: functional, Influenza A virus (A/California/07/2009(H1N1))
Nonstructural protein 1, sequence (Q194T2 whole entry): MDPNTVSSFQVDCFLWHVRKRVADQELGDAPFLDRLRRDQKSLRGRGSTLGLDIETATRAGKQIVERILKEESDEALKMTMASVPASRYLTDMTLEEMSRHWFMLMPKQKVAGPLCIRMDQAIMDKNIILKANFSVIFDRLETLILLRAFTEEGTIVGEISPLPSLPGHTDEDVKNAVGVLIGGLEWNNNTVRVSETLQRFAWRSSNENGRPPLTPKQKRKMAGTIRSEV

Vero [23] = assay: Vero cell cytotoxicity, cytotoxicity control for flavivirus capping enzyme inhibitors (AID 588742); assay type: functional; conditions: Chlorocebus sabaeus
[24] = molecular target: Induced myeloid leukemia cell differentiation protein Mcl-1 (Homo sapiens, UniProt Q07820); assay type: functional
Induced myeloid leukemia cell differentiation protein Mcl-1, sequence (Q07820 whole entry): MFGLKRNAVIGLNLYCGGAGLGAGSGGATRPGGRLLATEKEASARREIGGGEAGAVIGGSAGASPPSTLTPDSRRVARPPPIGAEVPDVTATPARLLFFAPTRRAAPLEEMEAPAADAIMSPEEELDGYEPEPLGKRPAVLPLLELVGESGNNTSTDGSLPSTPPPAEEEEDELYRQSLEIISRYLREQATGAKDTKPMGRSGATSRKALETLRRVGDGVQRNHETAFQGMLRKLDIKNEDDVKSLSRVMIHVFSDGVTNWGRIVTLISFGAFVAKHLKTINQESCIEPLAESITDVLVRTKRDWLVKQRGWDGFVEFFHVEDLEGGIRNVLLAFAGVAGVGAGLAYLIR

H9c2 = assay: cells; assay type: functional, cell-based; conditions: Rattus norvegicus, H9c2, Myocardium;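 note: confirmatory concentration-response retest of ultra-high-throughput screening hits for modulation of myocardial damage; cell death induced by hydrogen peroxide oxidative stress; compound pretreatment for 60 min then peroxide exposure for 2 h; potency is for protecting the cells against peroxide damage rather than for killing them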

For `CCc1cc(C(=O)N2CCc3c([nH]c4ccccc34)C2c2ccc(OC)cc2F)no1` (stereo not given), the EC50 (BJ [1]) was > 150 µM (not active), the CC50 (Vero [2]) was 24.4 µM (active) and the EC50 (BJ [3]) was 28.3 µM (active). The EC50 [4] was > 150 µM (inconclusive), the IC50 (Vero [5]) was 1.74 µM (active) and the CC50 (Vero [6]) was 20 µM (active). For the same compound, the EC50 (BJ [7]) was > 150 µM (not active).

For `COc1ccc(C)cc1NC(=O)NNC(=O)c1cc2ccccc2cc1O`, the EC50 [8] was > 38 µM (not active), the EC50 [9] was 22.7 µM (inconclusive) and the IC50 (Albumin) was > 94.1 µM (inactive).

For `COc1cc(CNCc2ccccn2)ccc1OCc1ccc(Cl)c(Cl)c1`, the AC50 (HeLa) was 45.5 µM (active) and the CC50 (Vero [6]) was > 25 µM (active).

In the case of `CC(C)(C)c1cc(-c2nc(N)nc(N)n2)c(O)c(C(C)(C)C)c1`, the AC50 [10] is reported as 3.65 µM (active), the AC50 [11] is reported as 28.9 µM (active) and the CC50 [12] is reported as 38.3 µM (active). For the same compound, the IC50 [13] was > 20 µM (inactive).

In the case of `COc1ccc(N(C(=O)c2ccncc2)S(=O)(=O)c2ccccc2)cc1`, the AC50 [11] is reported as 1.77 µM (active).

In the case of `O=C(NC(=S)NNC(=O)c1cccs1)c1ccccc1`, the EC50 (Streptokinase A) is reported as > 150 µM (not active), the IC50 (Albumin) is reported as > 94.1 µM (inactive) and the EC50 [14] is reported as 3.79 µM (active). The EC50 (Streptococcus) was 21.2 µM (active).

With `Cn1c(N=NO)nc2ccccc21` the EC50 [15] was < 6 µM (inconclusive), the EC50 (cells [16]) was 11.3 µM (active) and the AC50 (INS1) was 0.932 µM (active). For the same compound, the EC50 (cells [17]) was > 350 µM (not active), the EC50 [9] was > 150 µM (inactive) and the EC50 [18] was 0.778 µM (active).

In the case of `COc1ccccc1OCc1cc(C(=O)N2CCN(C)C(c3ccccc3)C2)no1` (stereo not given), the AC50 [11] is reported as 4.78 µM (active).

For `Cc1ccc(CS/C(Nc2ccccc2C)=C(\C#N)C(=O)NCc2ccco2)c(C)c1`, the CC50 (Vero [2]) was 15.2 µM (active).

For `Cc1[nH]c2ccc(C(=O)N3CCN(c4cccc(Cl)c4)CC3)cc2c1C`, the AC50 [11] was 7.72 µM (active).

In the case of `CCOc1ccc(/C=N/NC(=O)c2cc3c(OC)cccc3[nH]2)cc1`, the IC50 [19] is reported as 3.08 µM (active), the IC50 [20] is reported as 13.2 µM (active) and the IC50 [21] is reported as 1.85 µM (active). For the same compound, the IC50 [22] was 1.65 µM (active).

In the case of `O=[N+]([O-])c1cc(Cl)cc(/C=N/NC(=S)Nc2ccc(S(=O)(=O)N3CCOCC3)cc2)c1O`, the EC50 [8] is reported as > 38 µM (not active), the EC50 [9] is reported as > 160 µM (inactive) and the IC50 (Genome polyprotein) is reported as > 100 µM (active). The IC50 (Nonstructural protein 1) was 3.52 µM (active), the IC50 (Albumin) was > 94.1 µM (inactive) and the CC50 (Vero [23]) was 38.3 µM (active). For the same compound, the IC50 [24] was 3.47 µM (active).

In the case of `O=C(CSc1nnc(-c2ccccc2)n1Cc1ccccc1)NNC(=O)c1ccccc1O`, the IC50 (Albumin) is reported as > 94.1 µM (inactive) and the IC50 (H9c2) is reported as 33.7 µM (inactive).

In the case of `Cc1c(/C=N/NC(N)=O)c2ccccn2c1C(=O)c1ccncc1`, the EC50 (cells [16]) is reported as > 350 µM (not active) and the EC50 (cells [17]) is reported as > 350 µM (not active).
